Publication PMC4876719 (Cell chemical biology, 2016)

Biological target: glutathione-S-transferase Pi 1 (GSTP1) (Homo sapiens, UniProt P09211)
Assay: CDNB-glutathione conjugation assay with pure GSTP1 after […] min pre-incubation
Type: biochemical

glutathione-S-transferase Pi 1 (GSTP1), sequence (P09211 2-210): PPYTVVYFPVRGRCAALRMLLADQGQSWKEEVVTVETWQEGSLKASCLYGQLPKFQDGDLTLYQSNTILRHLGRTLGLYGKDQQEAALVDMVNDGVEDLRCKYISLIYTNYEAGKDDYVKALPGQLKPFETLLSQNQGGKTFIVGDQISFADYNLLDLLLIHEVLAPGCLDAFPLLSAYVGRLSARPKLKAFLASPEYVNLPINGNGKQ

IC50: 0.5 µM
Substance: LAS17
